Data taken from patent US20240270762A1, “PENICILLIN-BINDING PROTEIN INHIBITORS” (priority 2021, published 2024).
In brackets after ≈: the same amount, converted by molar mass.

Assays:
A. baumannii PBP1a = target: T1, A. baumannii PBP1a (Acinetobacter baumannii, UniProt A0ABX6CK30); assay: Bocillin-FL competition binding via gel filtration, A. baumannii PBP1a; conditions: competition binding assay using Bocillin-FL via gel filtration; read-out: A. baumannii PBP1a Potency
T1 sequence (A0ABX6CK30 1-851): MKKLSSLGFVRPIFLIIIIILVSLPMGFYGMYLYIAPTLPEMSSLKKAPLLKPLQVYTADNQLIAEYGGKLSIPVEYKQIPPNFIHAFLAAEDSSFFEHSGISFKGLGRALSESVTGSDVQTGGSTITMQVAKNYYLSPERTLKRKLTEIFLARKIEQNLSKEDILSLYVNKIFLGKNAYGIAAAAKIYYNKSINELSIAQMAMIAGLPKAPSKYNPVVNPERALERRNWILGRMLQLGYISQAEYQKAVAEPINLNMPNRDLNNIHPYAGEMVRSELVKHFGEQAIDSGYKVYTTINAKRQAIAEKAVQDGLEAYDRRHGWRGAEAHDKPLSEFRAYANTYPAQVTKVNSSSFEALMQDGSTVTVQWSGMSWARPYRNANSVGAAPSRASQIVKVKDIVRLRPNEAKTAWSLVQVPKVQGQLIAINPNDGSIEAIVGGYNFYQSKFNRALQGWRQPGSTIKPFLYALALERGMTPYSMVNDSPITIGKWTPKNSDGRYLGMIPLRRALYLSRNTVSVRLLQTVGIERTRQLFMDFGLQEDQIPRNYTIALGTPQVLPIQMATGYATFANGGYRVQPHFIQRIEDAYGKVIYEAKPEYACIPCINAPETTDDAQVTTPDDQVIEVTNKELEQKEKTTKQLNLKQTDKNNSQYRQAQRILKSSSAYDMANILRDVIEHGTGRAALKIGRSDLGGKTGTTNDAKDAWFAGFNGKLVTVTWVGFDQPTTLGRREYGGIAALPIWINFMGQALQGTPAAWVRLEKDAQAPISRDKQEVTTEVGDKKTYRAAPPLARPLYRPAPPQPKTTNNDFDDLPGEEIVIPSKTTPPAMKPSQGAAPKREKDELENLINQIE
In short: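 Competitive equilibrium binding; reporter Bocillin-FL. PBP + inhibitor (titration) pre-incubated → Bocillin-FL, 15 min → gel filtration → fluorescence. EC50 from Hill fit of fraction bound vs [inhibitor].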

A. baumannii CDC-0033 = assay: microbe, parasite or virus in culture; type: cell-based; conditions: Acinetobacter baumannii, CDC0033, read-out: MIC, A. baumannii CDC-0033
A. baumannii CDC-0045 = assay: microbe, parasite or virus in culture; type: cell-based; conditions: Acinetobacter baumannii, CDC0045, read-out: MIC, A. baumannii CDC-0045
[1] = test system: P. aeruginosa (ΔmexAB-oprM); assay: Broth microdilution MIC in iron-depleted CAMHB (IDM); type: cell-based; conditions: Pseudomonas aeruginosa; iron-depleted CAMHB (IDM); […]; read-out: Minimum inhibitory concentration, P. aeruginosa ΔmexAB-oprM
A. baumannii ATCC 17978 = assay: microbe, parasite or virus in culture; type: cell-based; conditions: Acinetobacter baumannii, ATCC17978, read-out: MIC, A. baumannii ATCC 17978
P. aeruginosa CDC-0054 = assay: microbe, parasite or virus in culture; type: cell-based; conditions: Pseudomonas aeruginosa, CDC0054, read-out: Minimum inhibitory concentration, P. aeruginosa CDC-0054
P. aeruginosa CDC-0090 = assay: microbe, parasite or virus in culture; type: cell-based; conditions: Pseudomonas aeruginosa, CDC0090, read-out: Minimum inhibitory concentration, P. aeruginosa CDC-0090
A. baumannii CDC-0083 = assay: microbe, parasite or virus in culture; type: cell-based; conditions: Acinetobacter baumannii, CDC0083, read-out: MIC, A. baumannii CDC-0083
A. baumannii 1258916 = assay: microbe, parasite or virus in culture; type: cell-based, Acinetobacter baumannii; conditions: Acinetobacter baumannii, 1258916, read-out: MIC, A. baumannii 1258916
[2] = test system: B. humptydooensis ATCC BAA-2767; assay: microbe, parasite or virus in culture; type: cell-based; conditions: Burkholderia humptydooensis, ATCCBAA2767, read-out: Minimum inhibitory concentration (MIC), B. humptydooensis ATCC BAA-2767
[3] = test system: B. thailandensis ATCC 700388; assay: microbe, parasite or virus in culture; type: cell-based; conditions: Burkholderia thailandensis, ATCC700388, read-out: Minimum inhibitory concentration (MIC), B. thailandensis ATCC 700388
P. aeruginosa CDC-0110 = assay: microbe, parasite or virus in culture; type: cell-based; conditions: Pseudomonas aeruginosa, CDC0110, read-out: Minimum inhibitory concentration, P. aeruginosa CDC-0110
P. aeruginosa ATCC 35151 = assay: microbe, parasite or virus in culture; type: cell-based; conditions: Pseudomonas aeruginosa, ATCC35151, read-out: Minimum inhibitory concentration, P. aeruginosa ATCC 35151
A. baumannii ATCC 19606 = assay: microbe, parasite or virus in culture; type: cell-based; conditions: Acinetobacter baumannii, ATCC19606, read-out: MIC, A. baumannii ATCC 19606
P. aeruginosa CDC-0095 = assay: microbe, parasite or virus in culture; type: cell-based; conditions: Pseudomonas aeruginosa, CDC0095, read-out: Minimum inhibitory concentration, P. aeruginosa CDC-0095

Row | Structure (SMILES) | EC50 (A. baumannii PBP1a) | MIC (A. baumannii CDC-0033) | MIC (A. baumannii CDC-0045) | MIC [1] | MIC (A. baumannii ATCC 17978) | MIC (P. aeruginosa CDC-0054) | MIC (P. aeruginosa CDC-0090) | MIC (A. baumannii CDC-0083) | MIC (A. baumannii 1258916) | MIC [2] | MIC [3] | MIC (P. aeruginosa CDC-0110) | MIC (P. aeruginosa ATCC 35151) | MIC (A. baumannii ATCC 19606) | MIC (P. aeruginosa CDC-0095)
1 | O=C(NCCCN1CCN(C(=O)N[C@@H](C(=O)N[C@H]2Cc3ccc(F)c(C(=O)O)c3OB2O)c2cc(F)c(O)c(O)c2Cl)C(=O)C1=O)c1ccnc(F)c1F [Example 300, (R)-3-((R)-2-(2-chloro-5-fluoro-3,4-dihydroxyphenyl)-2-(4-(3-(2,3-difluoroisonicotinamido)propyl)-2,3-dioxopiperazine-1-carboxamido)acetamido)-7-fluoro-2-hydroxy-3,4-dihydro-2H-benzo[e][1,2]oxaborinine-8-carboxylic acid] | 10 to 50 µM | 2 to 4 µg/mL (≈ 2.56 to 5.12 µM) | < 1 µg/mL | < 1 µg/mL | < 1 µg/mL | < 1 µg/mL | < 1 µg/mL | < 1 µg/mL | < 1 µg/mL | < 1 µg/mL | 2 to 4 µg/mL (≈ 2.56 to 5.12 µM) | < 1 µg/mL | < 1 µg/mL | < 1 µg/mL | 2 to 4 µg/mL (≈ 2.56 to 5.12 µM)
2 | O=C(NCCS(=O)(=O)N1CCN(C(=O)NC(C(=O)N[C@H]2Cc3ccc(F)c(C(=O)O)c3OB2O)c2cc(F)c(O)c(O)c2Cl)C1=O)c1ccncc1 (stereo partly drawn) [Example 288, (3R)-3-(2-(2-chloro-5-fluoro-3,4-dihydroxyphenyl)-2-(3-((2-(isonicotinamido)ethyl)sulfonyl)-2-oxoimidazolidine-1-carboxamido)acetamido)-7-fluoro-2-hydroxy-3,4-dihydro-2H-benzo[e][1,2]oxaborinine-8-carboxylic acid] | – | 8 to 16 µg/mL (≈ 10.4 to 20.9 µM) | < 1 µg/mL | < 1 µg/mL | < 1 µg/mL | 2 to 4 µg/mL (≈ 2.61 to 5.22 µM) | 2 to 4 µg/mL (≈ 2.61 to 5.22 µM) | < 1 µg/mL | < 1 µg/mL | 2 to 4 µg/mL (≈ 2.61 to 5.22 µM) | 2 to 4 µg/mL (≈ 2.61 to 5.22 µM) | 2 to 4 µg/mL (≈ 2.61 to 5.22 µM) | < 1 µg/mL | < 1 µg/mL | 8 to 16 µg/mL (≈ 10.4 to 20.9 µM)
3 | O=C(NCCCN1CCN(C(=O)N[C@@H](C(=O)N[C@H]2Cc3ccc(F)c(C(=O)O)c3OB2O)c2cc(F)c(O)c(O)c2Cl)C(=O)C1=O)c1ccncc1 [Example 294, (R)-3-((R)-2-(2-chloro-5-fluoro-3,4-dihydroxyphenyl)-2-(4-(3-(isonicotinamido)propyl)-2,3-dioxopiperazine-1-carboxamido)acetamido)-7-fluoro-2-hydroxy-3,4-dihydro-2H-benzo[e][1,2]oxaborinine-8-carboxylic acid] | – | 2 to 4 µg/mL (≈ 2.69 to 5.37 µM) | < 1 µg/mL | < 1 µg/mL | < 1 µg/mL | < 1 µg/mL | < 1 µg/mL | < 1 µg/mL | < 1 µg/mL | < 1 µg/mL | < 1 µg/mL | < 1 µg/mL | < 1 µg/mL | < 1 µg/mL | < 1 µg/mL
4 | O=C(NCCCN1CCN(C(=O)N[C@H](C(=O)N[C@H]2Cc3ccc(F)c(C(=O)O)c3OB2O)c2cc(F)c(O)c(O)c2Cl)C(=O)C1=O)c1cccc(O)c1Cl [Example 302, (R)-3-((S)-2-(4-(3-(2-chloro-3-hydroxybenzamido)propyl)-2,3-dioxopiperazine-1-carboxamido)-2-(2-chloro-5-fluoro-3,4-dihydroxyphenyl)acetamido)-7-fluoro-2-hydroxy-3,4-dihydro-2H-benzo[e][1,2]oxaborinine-8-carboxylic acid] | – | > 128 µg/mL | > 128 µg/mL | 2 to 4 µg/mL (≈ 2.52 to 5.04 µM) | 2 to 4 µg/mL (≈ 2.52 to 5.04 µM) | 32 to 64 µg/mL (≈ 40.3 to 80.6 µM) | 32 to 64 µg/mL (≈ 40.3 to 80.6 µM) | > 128 µg/mL | > 128 µg/mL | > 128 µg/mL | > 128 µg/mL | > 128 µg/mL | 2 to 4 µg/mL (≈ 2.52 to 5.04 µM) | 32 to 64 µg/mL (≈ 40.3 to 80.6 µM) | > 128 µg/mL
5 | O=C(O)c1c(F)ccc2c1OB(O)[C@@H](NC(=O)C(NC(=O)N1CCN(Cc3ccc(O)c(O)c3Cl)C(=O)C1=O)c1cc(F)c(O)c(O)c1Cl)C2 (stereo partly drawn) [Example 292, (3R)-3-(2-(4-(2-chloro-3,4-dihydroxybenzyl)-2,3-dioxopiperazine-1-carboxamido)-2-(2-chloro-5-fluoro-3,4-dihydroxyphenyl)acetamido)-7-fluoro-2-hydroxy-3,4-dihydro-2H-benzo[e][1,2]oxaborinine-8-carboxylic acid] | – | > 128 µg/mL | > 128 µg/mL | < 1 µg/mL | < 1 µg/mL | < 1 µg/mL | < 1 µg/mL | > 128 µg/mL | > 128 µg/mL | > 128 µg/mL | > 128 µg/mL | > 128 µg/mL | < 1 µg/mL | > 128 µg/mL | > 128 µg/mL
6 | CS(=O)(=O)N1CCN(C(=O)N[C@@H](C(=O)N[C@H]2Cc3cccc(C(=O)O)c3OB2O)c2ccc(P(=O)(O)O)cc2)C1=O (single isomer, unassigned) [Example 6] | – | 32 to 64 µg/mL (≈ 52.4 to 105 µM) | > 128 µg/mL | 8 to 16 µg/mL (≈ 13.1 to 26.2 µM) | 2 to 4 µg/mL (≈ 3.28 to 6.55 µM) | > 128 µg/mL | > 128 µg/mL | > 128 µg/mL | 32 to 64 µg/mL (≈ 52.4 to 105 µM) | 2 to 4 µg/mL (≈ 3.28 to 6.55 µM) | 8 to 16 µg/mL (≈ 13.1 to 26.2 µM) | 32 to 64 µg/mL (≈ 52.4 to 105 µM) | 2 to 4 µg/mL (≈ 3.28 to 6.55 µM) | 8 to 16 µg/mL (≈ 13.1 to 26.2 µM) | > 128 µg/mL
7 | O=C(NCCCN1CCN(C(=O)N[C@H](C(=O)N[C@H]2Cc3ccc(F)c(C(=O)O)c3OB2O)c2cc(F)c(O)c(O)c2Cl)C(=O)C1=O)c1ccc(O)cc1Cl (single isomer, unassigned) [Example 470] | – | 8 to 16 µg/mL (≈ 10.1 to 20.1 µM) | > 128 µg/mL | < 1 µg/mL | < 1 µg/mL | < 1 µg/mL | 2 to 4 µg/mL (≈ 2.52 to 5.04 µM) | > 128 µg/mL | > 128 µg/mL | 8 to 16 µg/mL (≈ 10.1 to 20.1 µM) | > 128 µg/mL | 8 to 16 µg/mL (≈ 10.1 to 20.1 µM) | < 1 µg/mL | 8 to 16 µg/mL (≈ 10.1 to 20.1 µM) | < 1 µg/mL
8 | O=C(NCCCN1CCN(C(=O)NC(C(=O)N[C@H]2Cc3ccc(F)c(C(=O)O)c3OB2O)c2cc(F)c(O)c(O)c2Cl)C1=O)c1cccnc1 (stereo partly drawn) [Example 281, (3R)-3-(2-(2-chloro-5-fluoro-3,4-dihydroxyphenyl)-2-(3-(3-(nicotinamido)propyl)-2-oxoimidazolidine-1-carboxamido)acetamido)-7-fluoro-2-hydroxy-3,4-dihydro-2H-benzo[e][1,2]oxaborinine-8-carboxylic acid] | – | 2 to 4 µg/mL (≈ 2.79 to 5.58 µM) | < 1 µg/mL | < 1 µg/mL | < 1 µg/mL | 8 to 16 µg/mL (≈ 11.2 to 22.3 µM) | 2 to 4 µg/mL (≈ 2.79 to 5.58 µM) | 8 to 16 µg/mL (≈ 11.2 to 22.3 µM) | < 1 µg/mL | < 1 µg/mL | 2 to 4 µg/mL (≈ 2.79 to 5.58 µM) | 2 to 4 µg/mL (≈ 2.79 to 5.58 µM) | < 1 µg/mL | < 1 µg/mL | 2 to 4 µg/mL (≈ 2.79 to 5.58 µM)
